Data from ChEMBL document CHEMBL1147507, “Preliminary in vitro studies on two potent, water-soluble trimethoprim analogues with exceptional species selectivity against dihydrofolate reductase from Pneumocystis carinii and Mycobacterium avium” (Bioorg Med Chem Lett, 2004).

What was measured:
[1] = Selectivity index was determined as ratio of IC50 against rat DHFR to that of IC50 against Toxoplasma gondii DHFR
[2] = Selectivity index was determined as ratio of IC50 against rat DHFR to that of IC50 against Mycobacterium avium DHFR
[3] = Selectivity index was determined as ratio of IC50 against rat DHFR to that of IC50 against Pneumocystis carinii DHFR
Dihydrofolate reductase [4] = biological target: T1, Dihydrofolate reductase (Rattus norvegicus, UniProt Q920D2)
T1 sequence (Q920D2 whole entry): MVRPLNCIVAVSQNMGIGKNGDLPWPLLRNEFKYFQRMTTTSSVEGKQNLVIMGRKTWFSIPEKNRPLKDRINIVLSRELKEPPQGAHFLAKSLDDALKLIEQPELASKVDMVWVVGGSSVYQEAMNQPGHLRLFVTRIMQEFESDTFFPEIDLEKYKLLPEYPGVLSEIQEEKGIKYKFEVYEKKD
Description: Inhibitory activity against rat dihydrofolate reductase

[5] = biological target: T2, Bifunctional dihydrofolate reductase-thymidylate synthase (Toxoplasma gondii, UniProt Q07422)
T2 sequence (Q07422 whole entry): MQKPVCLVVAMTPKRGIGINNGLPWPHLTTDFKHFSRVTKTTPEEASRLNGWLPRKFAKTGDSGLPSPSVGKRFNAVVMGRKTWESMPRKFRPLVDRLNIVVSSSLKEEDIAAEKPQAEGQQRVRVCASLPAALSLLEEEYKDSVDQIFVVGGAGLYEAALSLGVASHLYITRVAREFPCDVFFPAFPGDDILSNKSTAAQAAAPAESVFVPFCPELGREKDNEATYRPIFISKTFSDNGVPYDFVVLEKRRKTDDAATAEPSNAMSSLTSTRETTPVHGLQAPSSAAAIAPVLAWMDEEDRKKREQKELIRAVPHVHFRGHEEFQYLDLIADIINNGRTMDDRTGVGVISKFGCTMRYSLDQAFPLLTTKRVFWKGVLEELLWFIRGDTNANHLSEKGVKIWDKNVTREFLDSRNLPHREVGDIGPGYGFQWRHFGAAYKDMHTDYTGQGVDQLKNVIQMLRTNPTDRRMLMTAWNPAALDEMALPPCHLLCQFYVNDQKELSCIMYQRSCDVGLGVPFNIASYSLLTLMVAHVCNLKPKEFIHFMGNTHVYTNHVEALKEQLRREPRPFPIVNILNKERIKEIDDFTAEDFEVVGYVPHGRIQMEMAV
Description: Inhibitory concentration against Toxoplasma gondii dihydrofolate reductase

Dihydrofolate reductase [6] = biological target: T3, Dihydrofolate reductase (Mycobacterium avium, UniProt O30463)
T3 sequence (O30463 whole entry): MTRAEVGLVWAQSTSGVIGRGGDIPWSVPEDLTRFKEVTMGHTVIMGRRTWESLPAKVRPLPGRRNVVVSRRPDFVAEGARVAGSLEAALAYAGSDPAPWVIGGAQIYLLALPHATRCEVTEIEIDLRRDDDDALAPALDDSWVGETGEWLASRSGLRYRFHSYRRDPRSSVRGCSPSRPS
Description: Inhibitory concentration against Mycobacterium avium dihydrofolate reductase

Dihydrofolate reductase [7] = biological target: T4, Dihydrofolate reductase (Pneumocystis carinii, UniProt P16184)
T4 sequence (P16184 whole entry): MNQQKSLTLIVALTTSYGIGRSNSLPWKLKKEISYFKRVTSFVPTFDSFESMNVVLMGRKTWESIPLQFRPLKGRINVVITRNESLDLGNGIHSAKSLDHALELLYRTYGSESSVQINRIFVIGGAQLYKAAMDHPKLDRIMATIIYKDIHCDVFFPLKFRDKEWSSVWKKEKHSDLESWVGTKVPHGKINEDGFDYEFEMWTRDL
Description: Inhibitory concentration against Pneumocystis carinii dihydrofolate reductase

SMILES	Ratio [1]	Ratio [2]	Ratio [3]	IC50 (Dihydrofolate reductase [4])	IC50 [5]	IC50 (Dihydrofolate reductase [6])	IC50 (Dihydrofolate reductase [7])
COc1ccc(C#Cc2ccc(C(=O)O)cc2)cc1Cc1cnc(N)nc1N	24	2200	6.3	–	–	–	–
COc1cc(Cc2cnc(N)nc2N)cc(C#CCCCC(=O)O)c1OC	–	–	–	5 µM	–	–	–
COc1cc(Cc2cnc(N)nc2N)cc(C#Cc2ccc(C(=O)O)cc2)c1OC	210	11000	73	88 µM	0.42 µM	0.0082 µM	1.2 µM
